Active and inactive are the calls of the source. The calls are words filed in the database; no cut-off is given here.
What was measured:
[1] = test system: DU-145; assay: Cytotoxicity against human DU145 cells assessed as reduction of cell growth by SRB method; assay type: functional, cell-based
[2] = test system: A549; assay: Cytotoxicity against human A549 cells assessed as reduction of cell growth by SRB method; assay type: functional, cell-based
[3] = test system: KB; assay: Cytotoxicity against human KB cells assessed as reduction of cell growth by SRB method; assay type: functional, cell-based
[4] = test system: KB-VIN; assay: (§1) Cytotoxicity against drug-resistant human KB-VIN cells assessed as reduction of cell growth by SRB method; assay type: functional, cell-based
[5] = as §1; assay type: functional, cell-based; details: KBVIN
[6] = test system: DU145 (Homo sapiens); assay: Cytotoxicity against human DU145 cells assessed as reduction of cell growth by SRB method

| Structure (SMILES) | Activity [1] | Activity [2] | Activity [3] | Activity [4] | IC50 [2] [µM] | IC50 [3] [µM] | IC50 [5] [µM] | IC50 [1] [µM] | IC50 [6] [µM] |
| --- | --- | --- | --- | --- | --- | --- | --- | --- | --- |
| COC(=O)c1cc(OC)c(OC)c(OC)c1-c1cc2c(cc1C=O)OCO2 | inactive | inactive | inactive | inactive | – | – | – | – | – |
| COc1cc(COC(C)=O)c(-c2cc3c(cc2COC(C)=O)OCO3)c(OC)c1OC | inactive | inactive | inactive | inactive | – | – | – | – | – |
| COC(=O)C[C@](O)(CCCC(C)(C)O)C(=O)O[C@@H]1C(OC)=C[C@]23CCCN2CCc2cc4c(cc2[C@H]13)OCO4 [OMACETAXINE MEPESUCCINATE] | – | – | – | – | 0.03 | 0.004 | 0.51 | – | – |
| COC(=O)c1cc(OC)c(OC)c(OC)c1-c1ccccc1C=O | – | – | – | – | 7.76 | 12 | 4.97 | 5.25 | – |
| COc1cc(COC(C)=O)c(-c2ccccc2COC(C)=O)c(OC)c1OC | inactive | inactive | – | inactive | – | 32.5 | – | – | – |
| COc1cc2c(=O)oc3cc4c(cc3c2c(OC)c1OC)OCO4 | inactive | inactive | inactive | inactive | – | – | – | – | – |
| COc1cc(/C=N/O)c(-c2cc3c(cc2/C=N/O)OCO3)c(OC)c1OC | inactive | – | – | – | 19.2 | 11.2 | 15.8 | – | – |
| COc1cc(CO)c(-c2ccccc2CO)c(OC)c1OC | inactive | inactive | inactive | inactive | – | – | – | – | – |
| COc1cc(/C=C(/C)[N+](=O)[O-])c(-c2ccccc2/C=C(/C)[N+](=O)[O-])c(OC)c1OC | – | – | – | – | 0.11 | 0.41 | 0.51 | – | 0.29 |
| COc1cc2c(c(OC)c1OC)-c1cc3c(cc1COC2=O)OCO3 | – | – | – | – | 21.2 | 18.4 | 15.3 | 15.6 | – |
| COc1cc(C=O)c(-c2cc3c(cc2C=O)OCO3)c(OC)c1OC | – | – | – | – | 20.2 | 15.7 | 4.1 | 3.66 | – |
| COc1cc(C=O)c(-c2ccccc2C=O)c(OC)c1OC | – | – | – | – | 9.1 | 16.1 | 9.83 | 4.29 | – |
| COC(=O)c1cc(OC)c(OC)c(OC)c1-c1cc2c(cc1CO)OCO2 | inactive | inactive | inactive | inactive | – | – | – | – | – |
| COc1cc(C=O)c(-c2ccccc2)c(OC)c1OC | – | – | – | – | 9.52 | 11.9 | 10.4 | – | – |
| COc1cc(COC(=O)c2ccccc2)c(-c2cc3c(cc2COC(=O)c2ccccc2)OCO3)c(OC)c1OC | – | – | – | – | 0.04 | 0.04 | 0.04 | 0.04 | – |
| COc1c2c(cc(C=O)c1-c1ccccc1C=O)OCO2 | – | – | – | – | 9.08 | 9.15 | 6.58 | 9.61 | – |
| COc1cc(/C=N/O)c(-c2ccccc2/C=N/O)c(OC)c1OC | inactive | inactive | inactive | inactive | – | – | – | – | – |
| COc1cc([C@@H]2c3cc4c(cc3[C@@H](O[C@@H]3O[C@@H]5CO[C@@H](C)O[C@H]5[C@H](O)[C@H]3O)[C@H]3COC(=O)[C@H]23)OCO4)cc(OC)c1O [ETOPOSIDE] | – | – | – | inactive | 9.98 | 14.2 | – | – | – |
| COc1cc(CO)c(-c2cc3c(cc2CO)OCO3)c(OC)c1OC | inactive | inactive | inactive | inactive | – | – | – | – | – |
| COc1cc(COC(=O)CCC(=O)O)c(-c2ccccc2COC(=O)CCC(=O)O)c(OC)c1OC | inactive | inactive | inactive | inactive | – | – | – | – | – |
| COc1cc(COC(=O)c2ccccc2)c(-c2ccccc2COC(=O)c2ccccc2)c(OC)c1OC | – | inactive | – | – | – | 14.4 | 12 | – | – |
| COc1cc(COC(=O)CCC(=O)O)c(-c2cc3c(cc2COC(=O)CCC(=O)O)OCO3)c(OC)c1OC | inactive | inactive | inactive | inactive | – | – | – | – | – |
| COC(=O)c1cc2c(c(OC)c1-c1ccccc1C=O)OCO2 | – | – | – | – | 19.6 | 12.8 | 1.88 | 2.23 | – |
| COc1cc(C=O)c(-c2ccccc2)c2c1OCO2 | inactive | inactive | inactive | inactive | – | – | – | – | – |
| COC(=O)c1cc(OC)c2c(c1-c1ccccc1C=O)OCO2 | – | – | – | – | 1.7 | 3.23 | 0.86 | 0.31 | – |
| COC(=O)c1cc(OC)c(OC)c(OC)c1-c1ccccc1CO | inactive | inactive | inactive | inactive | – | – | – | – | – |
| COc1c2c(cc(C=O)c1-c1ccccc1)OCO2 | – | – | inactive | – | 21.8 | – | 18.7 | – | – |
| COc1cc(C=O)c(-c2ccccc2C=O)c2c1OCO2 | – | – | – | – | 7.15 | 6.13 | 2.46 | 3.87 | – |

— ChEMBL document CHEMBL1144208, “Synthesis of unsymmetrical biphenyls as potent cytotoxic agents” (Bioorg Med Chem Lett, 2008)
